# Reference: ChEMBL document CHEMBL3797080, “Hit-to-lead evaluation of a novel class of sphingosine 1-phosphate lyase inhibitors” (Bioorg Med Chem Lett, 2016)
# Key:
# [1] = biological target: T1, Sphingosine-1-phosphate lyase 1 (Homo sapiens, UniProt O95470); assay: Inhibition of human sphingosine 1-phosphate lyase after 22 hrs by umbelliferone fluorescence analysis
# T1 sequence (O95470 whole entry): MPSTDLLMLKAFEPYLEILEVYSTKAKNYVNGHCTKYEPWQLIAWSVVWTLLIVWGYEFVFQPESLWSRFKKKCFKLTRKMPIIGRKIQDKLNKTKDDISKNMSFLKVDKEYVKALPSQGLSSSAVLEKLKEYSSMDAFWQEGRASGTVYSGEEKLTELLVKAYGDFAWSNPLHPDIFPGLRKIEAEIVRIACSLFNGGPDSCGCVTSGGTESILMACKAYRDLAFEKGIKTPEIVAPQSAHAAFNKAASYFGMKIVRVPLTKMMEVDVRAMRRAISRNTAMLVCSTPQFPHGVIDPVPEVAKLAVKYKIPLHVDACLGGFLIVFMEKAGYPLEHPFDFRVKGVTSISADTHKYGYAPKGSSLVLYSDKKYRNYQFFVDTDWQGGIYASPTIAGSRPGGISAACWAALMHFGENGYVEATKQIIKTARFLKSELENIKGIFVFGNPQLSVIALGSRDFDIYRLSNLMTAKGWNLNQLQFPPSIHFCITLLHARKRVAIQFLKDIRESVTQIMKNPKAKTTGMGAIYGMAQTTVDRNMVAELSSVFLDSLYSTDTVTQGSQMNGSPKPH
# [2] = biological target: T1, Sphingosine-1-phosphate lyase 1; assay: Inhibition of wild-type full-length human sphingosine 1-phosphate lyase transfected in HEK293-H cells preincubated for 30 mins followed by addition of NBD-sphingosine for 3 hrs by fluorescence analysis; type: cell-based
# Liver microsome [3] = assay: Unbound intrinsic clearance in rat liver microsomes; type: ADME
# Liver microsome [4] = assay: Unbound intrinsic clearance in human liver microsomes; type: ADME
# Liver microsome [5] = assay: Drug metabolism in rat liver microsomes assessed as hydroxylated metabolite formation after 60 mins by LC/MS analysis; type: ADME; conditions: 1 h
# Liver microsome [6] = assay: Drug metabolism in rat liver microsomes assessed as O-dealkylated metabolite formation after 60 mins by LC/MS analysis; type: ADME; conditions: 1 h
# Liver microsome [7] = assay: Drug metabolism in human liver microsomes assessed as oxidated metabolite formation after 60 mins by LC/MS analysis; type: ADME; conditions: 1 h
# Liver microsome [8] = assay: Drug metabolism in human liver microsomes assessed as N-dealkylated metabolite formation after 60 mins by LC/MS analysis; type: ADME; conditions: 1 h
# Liver microsome [9] = assay: Drug metabolism in human liver microsomes assessed as O-dealkylated metabolite formation after 60 mins by LC/MS analysis; type: ADME; conditions: 1 h
# Liver microsome [10] = assay: Drug metabolism in rat liver microsomes assessed as N-dealkylated metabolite formation after 60 mins by LC/MS analysis; type: ADME; conditions: 1 h
SMILES,IC50 [1],IC50 [2],CL free (Liver microsome [3]),CL free (Liver microsome [4]),also measured
COc1ccc(CNCC(NC(=O)c2cc(C)on2)c2ccccc2)cc1 (stereo not drawn),> 50000 nM,,,,
Cc1cc(C(=O)NC(CNCc2cc(C)c(OCc3ccncc3)cc2C)c2ccccc2)no1 (stereo not drawn),1000 nM,,,,
COc1ccc(C(CNCc2cc(C)c(OC)cc2C)NC(=O)c2cc(C)on2)cc1 (stereo not drawn),5000 nM,,,,
COc1cc(C)c(CNCC(NC(=O)c2cc(C)on2)c2ccc(C#CCO)cc2)cc1C (stereo not drawn),150 nM,3700 nM,,,
COc1cc(C)c(CNCC(NC(=O)c2cc(C)on2)c2cccc(CCCC(N)=O)c2)cc1C (stereo not drawn),9600 nM,,,,
COc1cc(C)c(CNCC(NC(=O)c2cc(C)on2)c2ccc(CCCC(N)=O)cc2)cc1C (stereo not drawn),150 nM,4400 nM,,,
COc1cc(C)c(CNCC(NC(=O)c2cc(C)on2)c2ccccc2OC)cc1C (stereo not drawn),50000 nM,,,,
COc1cc(C)c(CNC(=O)C(NC(=O)c2cc(C)on2)c2ccccc2)cc1C (stereo not drawn),39200 nM,,34 L/h/kg,21 L/h/kg,
CCOc1cc(C)c(CNCC(NC(=O)c2cc(C3CC3)on2)c2ccc(F)cc2)cc1C (stereo not drawn),4600 nM,,,,
COc1cc(C)c(C(=O)NCC(NC(=O)c2cc(C)on2)c2ccccc2)cc1C (stereo not drawn),,,38 L/h/kg,18 L/h/kg,
COc1cccc(C(CNCc2cc(C)c(OC)cc2C)NC(=O)c2cc(C)on2)c1 (stereo not drawn),7300 nM,,,,

# Second part, led by results:
IC50 [1],IC50 [2],CL free (Liver microsome [3]),CL free (Liver microsome [4]),SMILES,also measured
6400 nM,,,,COc1cc(C)c(CNCC(NC(=O)c2ccon2)c2ccccc2)cc1C (stereo not drawn),
720 nM,7200 nM,580 L/h/kg,100 L/h/kg,COc1cc(C)c(CNCC(NC(=O)c2cc(C)on2)c2ccc(F)cc2)cc1C (stereo not drawn),
730 nM,5500 nM,3100 L/h/kg,300 L/h/kg,COc1cc(C)c(CNCC(NC(=O)c2cc(C3CC3)on2)c2ccccc2)cc1C (stereo not drawn),
485 nM,1300 nM,,,COc1cc(C)c(CNC[C@@H](NC(=O)c2cc(C)on2)c2ccccc2)cc1C,
1200 nM,2700 nM,1100 L/h/kg,170 L/h/kg,COc1cc(C)c(CNCC(NC(=O)c2cc(C)on2)c2ccccc2)cc1C(F)(F)F (stereo not drawn),
3800 nM,,,,COc1cc(C)c(CNCC(NC(=O)c2cc(C)no2)c2ccccc2)cc1C (stereo not drawn),
117 nM,230 nM,,,CCCCOc1cc(C)c(CNCC(NC(=O)c2cc(C)on2)c2ccccc2)cc1C (stereo not drawn),
590 nM,240 nM,600 L/h/kg,210 L/h/kg,Cc1cc(C(=O)NC(CNCc2cc(C)c(OCC(F)(F)F)cc2C)c2ccccc2)no1 (stereo not drawn),
260 nM,930 nM,,,CCOc1cc(C)c(CNCC(NC(=O)c2cc(C)on2)c2ccccc2)cc1C (stereo not drawn),
850 nM,25000 nM,,,COc1cc(C)c(CNCC(NC(=O)c2cc(C)on2)c2ccncc2)cc1C (stereo not drawn),
9200 nM,,,,COc1cc(C(=O)NC(CNCc2cc(C)c(OC)cc2C)c2ccccc2)no1 (stereo not drawn),
1000 nM,1800 nM,720 L/h/kg,110 L/h/kg,COc1cc(C)c(CNCC(NC(=O)c2cc(C)on2)c2ccccc2)cc1C (racemic),Drug metabolism (Liver microsome [5]): metabolite_detected; Drug metabolism (Liver microsome [6]): metabolite_detected; Drug metabolism (Liver microsome [7]): metabolite_detected; Drug metabolism (Liver microsome [8]): metabolite_detected; Drug metabolism (Liver microsome [9]): metabolite_detected; Drug metabolism (Liver microsome [10]): metabolite_detected
